Source: ChEMBL document CHEMBL5346873, “Strategic modification of low-activity natural antimicrobial peptides confers antibacterial potential in vitro and in vivo” (Eur J Med Chem, 2023)
Values belong to the substance of their own block, whether it stands above or below them.

Legend:
Acinetobacter baumannii = experiment: Bactericidal activity against Acinetobacter baumannii incubated for overnight; format: functional
[1] = Hemolytic activity in human RBC at 100 ug/ml incubated for 1 hr; format: toxicity, cell-based, Erythrocyte; conditions: human red blood cells (erythrocytes), at 100 µg/mL, read-out: Activity
Staphylococcus aureus = experiment: Bactericidal activity against Staphylococcus aureus incubated for overnight; format: functional
Enterococcus faecium [2] = experiment: Bactericidal activity against Enterococcus faecium incubated overnight; format: functional
Vibrio vulnificus [3] = experiment: Bactericidal activity against Vibrio vulnificus V1 incubated overnight; format: functional
Edwardsiella tarda [4] = experiment: Bactericidal activity against Edwardsiella tarda incubated overnight; format: functional
Vibrio harveyi [5] = experiment: Antibacterial activity against Vibrio harveyi incubated for 16 to 20 hrs; format: functional; conditions: time 16-20 hrs
Enterococcus faecalis [6] = experiment: Bactericidal activity against Enterococcus faecalis incubated overnight; format: functional
Vibrio vulnificus [7] = experiment: Bactericidal activity against Vibrio vulnificus V2 incubated overnight; format: functional
Vibrio vulnificus [8] = experiment: Antibacterial activity against Vibrio vulnificus V3 incubated for 16 to 20 hrs; format: functional; conditions: time 16-20 hrs
Enterococcus faecalis [9] = experiment: Antibacterial activity against Enterococcus faecalis incubated for 16 to 20 hrs; format: functional; conditions: time 16-20 hrs
Candida tropicalis [10] = experiment: Antifungal activity against Candida tropicalis incubated for 16 to 20 hrs; format: functional; conditions: time 16-20 hrs
Klebsiella aerogenes [11] = experiment: Bactericidal activity against Enterobacter aerogenes incubated overnight; format: functional
Klebsiella oxytoca [12] = experiment: Bactericidal activity against Klebsiella oxytoca incubated overnight; format: functional
Pseudomonas aeruginosa [13] = experiment: Antibacterial activity against Pseudomonas aeruginosa incubated for 16 to 20 hrs; format: functional; conditions: time 16-20 hrs
Klebsiella pneumoniae [14] = experiment: Antibacterial activity against NDM Klebsiella pneumoniae incubated for 16 to 20 hrs; format: functional; conditions: time 16-20 hrs
Streptococcus iniae [15] = experiment: Bactericidal activity against Streptococcus iniae incubated overnight; format: functional
Vibrio vulnificus [16] = experiment: Antibacterial activity against Vibrio vulnificus V1 incubated for 16 to 20 hrs; format: functional; conditions: time 16-20 hrs
Enterococcus faecium [17] = experiment: Antibacterial activity against Enterococcus faecium incubated for 16 to 20 hrs; format: functional; conditions: time 16-20 hrs
Salmonella enterica [18] = experiment: Antibacterial activity against Salmonella enterica incubated for 16 to 20 hrs; format: functional; conditions: time 16-20 hrs
Vibrio vulnificus [19] = experiment: Bactericidal activity against Vibrio vulnificus V3 incubated overnight; format: functional
Edwardsiella tarda [20] = experiment: Antibacterial activity against Edwardsiella tarda incubated for 16 to 20 hrs; format: functional; conditions: time 16-20 hrs
Vibrio vulnificus [21] = experiment: Antibacterial activity against Vibrio vulnificus 204 incubated for 16 to 20 hrs; format: functional; conditions: time 16-20 hrs
Vibrio vulnificus [22] = experiment: Antibacterial activity against Vibrio vulnificus V2 incubated for 16 to 20 hrs; format: functional; conditions: time 16-20 hrs
Vibrio alginolyticus [23] = experiment: Bactericidal activity against Vibrio alginolyticus incubated overnight; format: functional
Klebsiella oxytoca [24] = experiment: Antibacterial activity against Klebsiella oxytoca incubated for 16 to 20 hrs; format: functional; conditions: time 16-20 hrs
[25] = system: Staphylococcus haemolyticus; experiment: Antibacterial activity against Staphylococcus haemolyticus incubated for 16 to 20 hrs; format: functional; conditions: time 16-20 hrs
Salmonella typhimurium [26] = experiment: Antibacterial activity against Salmonella typhimurium incubated for 16 to 20 hrs; format: functional, Salmonella enterica subsp. enterica serovar Typhimurium; conditions: Salmonella enterica; time 16-20 hrs
Nakaseomyces glabratus [27] = experiment: Antifungal activity against Candida glabrata incubated for 16 to 20 hrs; format: functional; conditions: time 16-20 hrs
Vibrio alginolyticus [28] = experiment: Antibacterial activity against Vibrio alginolyticus incubated for 16 to 20 hrs; format: functional; conditions: time 16-20 hrs
[29] = system: Staphylococcus haemolyticus; experiment: Bactericidal activity against Staphylococcus haemolyticus incubated overnight; format: functional
Escherichia coli [30] = experiment: Antibacterial activity against Escherichia coli incubated for 16 to 20 hrs; format: functional; conditions: time 16-20 hrs
Klebsiella pneumoniae [31] = experiment: Bactericidal activity against NDM Klebsiella pneumoniae incubated overnight; format: functional
Streptococcus iniae [32] = experiment: Antibacterial activity against Streptococcus iniae incubated for 16 to 20 hrs; format: functional; conditions: time 16-20 hrs
Candida tropicalis [33] = experiment: Fungicidal activity against Candida tropicalis incubated overnight; format: functional
Vibrio anguillarum [34] = experiment: Antibacterial activity against Listonella anguillarum incubated for 16 to 20 hrs; format: functional; conditions: time 16-20 hrs
Vibrio harveyi [35] = experiment: Bactericidal activity against Vibrio harveyi incubated overnight; format: functional
Aeromonas hydrophila [36] = experiment: Bactericidal activity against Aeromonas hydrophila incubated overnight; format: functional
Streptococcus agalactiae [37] = experiment: Bactericidal activity against Streptococcus agalactiae incubated overnight; format: functional
Escherichia coli [38] = experiment: Bactericidal activity against Escherichia coli incubated overnight; format: functional
Vibrio anguillarum [39] = experiment: Bactericidal activity against Listonella anguillarum incubated overnight; format: functional
Salmonella typhimurium [40] = experiment: Bactericidal activity against Salmonella typhimurium incubated overnight; format: functional, Salmonella enterica subsp. enterica serovar Typhimurium; conditions: Salmonella enterica
Klebsiella aerogenes [41] = experiment: Antibacterial activity against Enterobacter aerogenes incubated for 16 to 20 hrs; format: functional; conditions: time 16-20 hrs
Salmonella enterica [42] = experiment: Bactericidal activity against Salmonella enterica incubated overnight; format: functional
Nakaseomyces glabratus [43] = experiment: Fungicidal activity against Candida glabrata incubated overnight; format: functional
Aeromonas hydrophila [44] = experiment: Antibacterial activity against Aeromonas hydrophila incubated for 16 to 20 hrs; format: functional; conditions: time 16-20 hrs
Pseudomonas aeruginosa [45] = experiment: Bactericidal activity against Pseudomonas aeruginosa incubated overnight; format: functional
Streptococcus agalactiae [46] = experiment: Antibacterial activity against Streptococcus agalactiae incubated for 16 to 20 hrs; format: functional; conditions: time 16-20 hrs
Vibrio vulnificus [47] = experiment: Bactericidal activity against Vibrio vulnificus 204 incubated overnight; format: functional

Substance: H-FKDKSVLKIVKIFVKIYF-OH
MBC (Acinetobacter baumannii): > 100 µg/mL | hemolysis at 1 h, 100 ug/ml [1]: 2.2% | MBC (Staphylococcus aureus): > 100 µg/mL

Substance: H-FKWKSVLKIVKIFVKIYF-OH
MBC (Acinetobacter baumannii): 12.5 µg/mL | hemolysis at 1 h, 100 ug/ml [1]: 14.2% | MBC (Staphylococcus aureus): > 100 µg/mL

MIC (Vibrio harveyi [5]): > 100 µg/mL | MIC (Vibrio vulnificus [8]): 12.5 µg/mL | MIC (Enterococcus faecalis [9]): 50 µg/mL | MIC (Candida tropicalis [10]): > 100 µg/mL | MIC (Pseudomonas aeruginosa [13]): 100 µg/mL | MIC (Klebsiella pneumoniae [14]): 50 µg/mL | MIC (Vibrio vulnificus [16]): 12.5 µg/mL | MIC (Enterococcus faecium [17]): > 100 µg/mL | MIC (Salmonella enterica [18]): 25 µg/mL | MIC (Edwardsiella tarda [20]): > 100 µg/mL | MIC (Vibrio vulnificus [21]): 12.5 µg/mL | MIC (Vibrio vulnificus [22]): 12.5 µg/mL | MIC (Klebsiella oxytoca [24]): 50 µg/mL | MIC (Salmonella typhimurium [26]): 100 µg/mL | MIC (Nakaseomyces glabratus [27]): > 100 µg/mL | MIC (Vibrio alginolyticus [28]): 6.25 µg/mL | MIC (Escherichia coli [30]): 50 µg/mL | MIC (Streptococcus iniae [32]): 3.12 µg/mL | MIC (Vibrio anguillarum [34]): 50 µg/mL | MIC (Klebsiella aerogenes [41]): 12.5 µg/mL | MIC (Aeromonas hydrophila [44]): > 100 µg/mL | MIC (Streptococcus agalactiae [46]): 3.12 µg/mL
Substance: H-KKCIAKAILKKAKKLLKDLVNP-OH
MBC (Enterococcus faecium [2]): > 100 µg/mL | MBC (Vibrio vulnificus [3]): 12.5 µg/mL | MBC (Edwardsiella tarda [4]): > 100 µg/mL | MBC (Enterococcus faecalis [6]): > 100 µg/mL | MBC (Vibrio vulnificus [7]): 12.5 µg/mL | MBC (Klebsiella aerogenes [11]): 12.5 µg/mL | MBC (Klebsiella oxytoca [12]): 50 µg/mL | MBC (Streptococcus iniae [15]): 3.12 µg/mL | MBC (Vibrio vulnificus [19]): 12.5 µg/mL | MBC (Acinetobacter baumannii): 1.56 µg/mL | MBC (Vibrio alginolyticus [23]): 6.25 µg/mL | MIC [25]: < 1.56 µg/mL | hemolysis at 1 h, 100 ug/ml [1]: 3.7% | MBC (Staphylococcus aureus): > 100 µg/mL | MBC [29]: < 1.56 µg/mL | MBC (Klebsiella pneumoniae [31]): 50 µg/mL | MFC (Candida tropicalis [33]): > 100 µg/mL | MBC (Vibrio harveyi [35]): > 100 µg/mL | MBC (Aeromonas hydrophila [36]): > 100 µg/mL | MBC (Streptococcus agalactiae [37]): 3.12 µg/mL | MBC (Escherichia coli [38]): 50 µg/mL | MBC (Vibrio anguillarum [39]): 100 µg/mL | MBC (Salmonella typhimurium [40]): 100 µg/mL | MBC (Salmonella enterica [42]): 25 µg/mL | MFC (Nakaseomyces glabratus [43]): > 100 µg/mL | MBC (Pseudomonas aeruginosa [45]): > 100 µg/mL | MBC (Vibrio vulnificus [47]): 12.5 µg/mL

Substance: H-GKCIAKAIFKGAKKFLKKLVNP-OH
MBC (Acinetobacter baumannii): 3.12 µg/mL | hemolysis at 1 h, 100 ug/ml [1]: 16.7% | MBC (Staphylococcus aureus): > 100 µg/mL

Substance: H-FKWKSVLKIVKIFVDIYF-OH
MBC (Acinetobacter baumannii): > 100 µg/mL | hemolysis at 1 h, 100 ug/ml [1]: 48.1% | MBC (Staphylococcus aureus): > 100 µg/mL
